For assay [1], the system named is castrated (ORX) male Sprague-Dawley rats. The experiment in a line: Anabolic and androgenic activity in castrated (ORX) male rats, daily oral gavage for fourteen days. To be noted: for Anabolic muscle/prostate ratio: castrated rats; for Levator ani muscle weight, maximally stimulated: maximal stimulation, comparator. The assay is classed as in vivo, rat. The protocol: Male Sprague-Dawley rats weighing approximately 200 g were purchased from Harlan Bioproducts for Science (Indianapolis, Ind.).
The test article for this study was weighed and dissolved in 10% DMSO (Fisher) diluted with PEG 300 (Acros Organics, N.J.) for preparation of the appropriate dosage concentrations. […] Animals were randomly assigned to one of seven groups consisting of 4 to 5 animals per group. Control groups (intact and ORX) were administered vehicle daily. […] Where appropriate, animals were castrated on day one of the study.
(§1) In addition, ventral prostate, seminal vesicles, and levator ani muscle were removed, individually weighed, normalized to body weight, and expressed as a percentage of intact control. Student's T-test was used to compare individual dose groups to the intact control group. Significance was defined a priori as a P-value<0.05. Ventral prostate and seminal vesicle weights were evaluated as a measure of androgenic activity, whereas levator ani muscle weight was evaluated as a measure of anabolic activity. Blood was collected from the abdominal aorta, centrifuged, and sera were frozen at −80° C. prior to determination of serum hormone levels. Serum luteinizing hormone (LH) and follicle stimulating hormone (FSH) concentrations were determined.
(§2) The test article for this study was weighed and dissolved in 10% DMSO (Fisher) diluted with PEG 300 (Acros Organics, N.J.) for preparation of the appropriate dosage concentrations. […] Animals were randomly assigned to one of seven groups consisting of 4 to 5 animals per group. Control groups (intact and ORX) were administered vehicle daily. Compound of formula S-XXIII was administered via oral gavage at doses of 0.01, 0.03, 0.1, 0.3, 0.75, and 1 mg/day to both intact and ORX groups. Where appropriate, animals were castrated on day one of the study. Treatment with compound of formula S-XXIII began nine days post ORX and was administered daily via oral gavage for fourteen days.
Male Sprague-Dawley rats weighing approximately 200 g were purchased from Harlan Bioproducts for Science (Indianapolis, Ind.). […] Regenerative effects of the compound of formula S-XXIV in chronically (9 days) ORX rats was similarly evaluated.
as §2, with “S-XXIV” for “S-XXIII”
Male Sprague-Dawley rats weighing approximately 200 g were purchased from Harlan Bioproducts for Science (Indianapolis, Ind.). […] Anabolic and androgenic activity of compound of formula S-XXV in intact animals was evaluated, and the dose response in acutely orchidectomized (ORX) animals was evaluated as well.
The compound was weighed and dissolved in 10% DMSO (Fisher) diluted with PEG 300 (Acros Organics, N.J.) for preparation of the appropriate dosage concentrations.

The subject of assay [2] is intact male Sprague-Dawley rats. The experiment in a line: Anabolic and androgenic activity in intact male rats, daily oral gavage. The assay is classed as in vivo, rat. The protocol:
The test article for this study was weighed and dissolved in 10% DMSO (Fisher) diluted with PEG 300 (Acros Organics, N.J.) for preparation of the appropriate dosage concentrations. The animals were housed in groups of 2 to 3 animals per cage. Animals were randomly assigned to one of seven groups consisting of 4 to 5 animals per group. Control groups (intact and ORX) were administered vehicle daily. […] Where appropriate, animals were castrated on day one of the study. Treatment with compound of formula S-II began nine days post ORX and was administered daily via oral gavage for fourteen days.
as §1, with “The animals were sacrificed under anesthesia (ketamine/xyalzine, 87:13 mg/kg) and body weights were recorded. In” for “In”
(§3) The test article for this study was weighed and dissolved in 10% DMSO (Fisher) diluted with PEG 300 (Acros Organics, N.J.) for preparation of the appropriate dosage concentrations. The animals were housed in groups of 2 to 3 animals per cage. Animals were randomly assigned to one of seven groups consisting of 4 to 5 animals per group. Control groups (intact and ORX) were administered vehicle daily. Compound of formula S-XXIII was administered via oral gavage at doses of 0.01, 0.03, 0.1, 0.3, 0.75, and 1 mg/day to both intact and ORX groups. Where appropriate, animals were castrated on day one of the study. Treatment with compound of formula S-XXIII began nine days post ORX and was administered daily via oral gavage for fourteen days.
as §3, with “S-XXIV” for “S-XXIII”, “study.” for “study. Treatment with compound of formula S-XXIII began nine days post ORX and was administered daily via oral gavage for fourteen days.”

Where [3] appears, read: ORX rats, nonlinear regression, sigmoid Emax model.

Consider `C[C@](O)(COc1ccc(C#N)cc1)C(=O)Nc1ccc(C#N)c(Cl)c1` [S-XXIV, (S)—N-(3-chloro-4-cyanophenyl)-3-(4-cyanophenoxy)-2-hydroxy-2-methylpropanamide], for which, in assay [1] (ORX rats), the “Dose restoring 100% of levator ani muscle weight” value came out at 0.1 mg/day. For the same compound, the “Prostate weight restored at the dose restoring 100% levator ani” value in assay [1] (ORX rats) was 43±15%. Moreover, the “Levator ani muscle weight” value is on record as 52%±8% in assay [1] (ORX rats, 0.01 mg/day oral); 67%±9% in assay [1] (ORX rats, 0.03 mg/day oral); 98%±10% in assay [1] (ORX rats, 0.1 mg/day oral); 103%±12% in assay [1] (ORX rats, 0.3 mg/day oral); 105%±12% in assay [1] (ORX rats, 0.75 mg/day oral); 107%±5% in assay [2] (0.01 mg/day oral). The “Levator ani muscle weight” value in assay [2] (0.03 mg/day oral) was 103%±7%; in assay [2] (0.1 mg/day oral) it was 97%±7%; in assay [2] (0.3 mg/day oral) it was 103%±5%; in assay [2] (0.75 mg/day oral), 118%±7%; in assay [2] (1 mg/day oral), 118%±7%. The Prostate weight in assay [1] (ORX rats, 0.01 mg/day oral) was 17%±6%; in assay [1] (ORX rats, 0.03 mg/day oral), 31%±3%; in assay [1] (ORX rats, 0.1 mg/day oral) it was 43%±15%; in assay [1] (ORX rats, 0.3 mg/day oral) it was 54%±17%; in assay [1] (ORX rats, 0.75 mg/day oral) it was 58%±10%; in assay [2] (0.01 mg/day oral), 103%±10%. Also, the Prostate weight was 99%±10% in assay [2] (0.03 mg/day oral); 58%±10% in assay [2] (0.1 mg/day oral); 58%±15% in assay [2] (0.3 mg/day oral); 65%±20% in assay [2] (0.75 mg/day oral); 77%±23% in assay [2] (1 mg/day oral). The Seminal vesicle weight in assay [1] (ORX rats, 0.01 mg/day oral) is recorded as 10%±3%; in assay [1] (ORX rats, 0.03 mg/day oral), 13%±4%; in assay [1] (ORX rats, 0.1 mg/day oral), 21%±6%; in assay [1] (ORX rats, 0.3 mg/day oral), 43%±8%; in assay [1] (ORX rats, 0.75 mg/day oral), 51%±9%; in assay [1] (ORX rats, 1 mg/day oral) it was 69%±14%. In addition, the Anabolic muscle/prostate ratio in assay [1] (0.01 mg/day) was determined as 3.02; in assay [1] (0.03 mg/day), 2.13; in assay [1] (0.1 mg/day) it was 2.27; in assay [1] (0.3 mg/day) it was 1.90; in assay [1] (0.75 mg/day) it was 1.83; in assay [1] (1 mg/day), 1.51.
On to `C[C@](O)(COc1ccc(C#N)cc1)C(=O)Nc1ccc(C#N)c(C(F)(F)F)c1` [S-XXV], for which the “Dose able to fully restore/maintain levator ani muscle weight” value in assay [1] (ORX rats) was greater than 0.1 mg/day. In assay [1] (ORX rats), this compound displayed an ED50 levator ani of 0.02 ± 0.01 mg/day. For the same compound, in assay [1] (ORX rats), the ED50 prostate is 0.09 ± 0.07 mg/day. This compound showed an ED50 seminal vesicles in assay [1] (ORX rats) of 0.17 ± 0.05 mg/day. Further, the “Levator ani muscle weight” value in assay [1] (ORX rats, 0.01 mg/day oral) was 59%±6%; in assay [1] (ORX rats, 0.03 mg/day oral), 85%±9%; in assay [1] (ORX rats, 0.1 mg/day oral) it was 112%±10%; in assay [1] (ORX rats, 0.3 mg/day oral) it was 122%±16%; in assay [1] (ORX rats, 0.75 mg/day oral), 127±12 % of intact controls; in assay [1] (ORX rats, 1 mg/day oral), 129.66±2 % of intact controls. The “Levator ani muscle weight” value is listed as 120%±12% in assay [2] (0.01 mg/day oral); 116%±7% in assay [2] (0.03 mg/day oral); 128%±7% in assay [2] (0.1 mg/day oral); 134%±7% in assay [2] (0.3 mg/day oral); 125%±9% in assay [2] (0.75 mg/day oral); 146%±17% in assay [2] (1 mg/day oral). Further, the Prostate weight in assay [1] (ORX rats, 0.01 mg/day oral) is on record as 8%±2%; in assay [1] (ORX rats, 0.03 mg/day oral), 20%±5%; in assay [1] (ORX rats, 0.1 mg/day oral) it was 51%±19%; in assay [1] (ORX rats, 0.3 mg/day oral), 56%±9%; in assay [1] (ORX rats, 0.75 mg/day oral), 80%±28%; in assay [1] (ORX rats, 1 mg/day oral), 74±12.5 % of intact controls. The Prostate weight in assay [2] (0.01 mg/day oral) is reported as 111%±21%; in assay [2] (0.03 mg/day oral), 88%±15%; in assay [2] (0.1 mg/day oral), 77%±17%; in assay [2] (0.3 mg/day oral), 71%±16%; in assay [2] (0.75 mg/day oral), 71%±10%; in assay [2] (1 mg/day oral), 87%±13%. Besides, the Seminal vesicle weight in assay [1] (ORX rats, 0.01 mg/day oral) is 12%±4%; in assay [1] (ORX rats, 0.03 mg/day oral), 17%±5%; in assay [1] (ORX rats, 0.1 mg/day oral) it was 35%±10%; in assay [1] (ORX rats, 0.3 mg/day oral) it was 61%±15%; in assay [1] (ORX rats, 0.75 mg/day oral), 70%±14%; in assay [1] (ORX rats, 1 mg/day oral) it was 80%±6%. Further, the Seminal vesicle weight in assay [2] (0.01 mg/day oral) was 94%±9%; in assay [2] (0.03 mg/day oral) it was 77%±11%; in assay [2] (0.1 mg/day oral), 80%±9%; in assay [2] (0.3 mg/day oral), 73%±12%; in assay [2] (0.75 mg/day oral) it was 77%±10%; in assay [2] (1 mg/day oral), 88%±14%. In assay [1] (setting [3]), the Emax levator ani is 131%±2%. The Emax prostate in assay [1] (setting [3]) is recorded as 83%±25%. For the same compound, the Emax seminal vesicles in assay [1] (setting [3]) is 85%±11%.
In the case of `CC(=O)Nc1ccc(OC[C@](C)(O)C(=O)Nc2ccc([N+](=O)[O-])c(C(F)(F)F)c2)cc1` [S-4, S-3-(4-acetylaminophenoxy)-2-hydroxy-2-methyl-N-(4-nitro-3-trifluoromethylphenyl) propionamide, reference compound], the “Levator ani muscle weight, maximally stimulated” value in assay [1] is given as 101%.
The same measure, in the same setting: as for `CCC(=O)O[C@H]1CC[C@H]2[C@@H]3CCC4=CC(=O)CC[C@]4(C)[C@H]3CC[C@]12C` [Testosterone propionate, reference compound], the figure is 104%.

(Values after patent US9278914B2, “SARMs and method of use thereof” (UNIVERSITY OF TENNESSEE RESEARCH FOUNDATION, priority 2004, dated 2016).)
